Test results from patent US9808469B2, “Antitumor activity of multi-kinase inhibitors in triple negative breast cancer” (ENTRECHEM, S.L, priority 2014, dated 2017).
Read-outs that look alike come from different tables or passages of the source.

Assays:
Assay type in all cases: cell-based
[1] = test system: HS578T, BT549, MDA-MB-231 and HCC3153 cells; assay: MTT metabolization in a panel of TNBC cell lines
Experimental: Hs578T, BT549 and MDA-MB-231 were grown in DMEM and HCC3153 in RPMI; both mediums were purchased from Sigma Aldrich, supplemented with 10% FBS, 100 mU/mL penicillin, 100 μg/mL streptomycin and 2 mM L-glutamine, in a 5% CO2 atmosphere at 37° C. These triple negative breast cancer cell lines were obtained from the American Type Culture Collection Cell Biology Collection (ATCC) (Manassas, Va.). The medium was changed every 2 days.
(§1) Cell proliferation and growth experiments were carried out using 3-(4,5-dimethylthiazol-2-yl)-2,5-diphenyltetrazolium bromide (MTT) uptake assays, where MTT is reduced to purple formazan by the mitochondria of living cells. Increase in cell number is detected by augmented MTT metabolization, and decrease in cell number is reflected by a decrease. HS578T, BT549, MDA-MB-231 and HCC3153 cells were plated at a density of 1×10^4 cells per well in 24-well plates and cultured overnight in DMEM supplemented with 10% FBS. The cells were treated with the drug at different concentrations to plot the dose-response curves in all cancer cell lines using in the study. […] After treatment, each well was replaced with 250 μL of fresh medium containing MTT ([…]) and incubated for 1 hour. The medium was then removed and 500 μL of dimethyl sulfoxide was added to each well. The plate was agitated in the dark for 5 minutes to dissolve the MTT-formazan crystals. The absorbance of the samples was recorded at 562 nm in a multi-well plate reader (BMG labtech). Results were plotted as the mean values of quadruplicates from a representative experiment that was repeated at least two independent times.

[2] = test system: HS578T, BT549 and MDA-MB-231 cells; assay: Three-dimensional growth in matrigel (spherical structures)
Experimental: For three-dimensional cell culture, the bottom of 24 multi-dish plates was covered with a thin ice-cold 4% Matrigel (BD Biosciences) layer and incubated at 37° C. for 20 minutes to allow the Matrigel to solidify. Matrigel was added to conventional DMEM. The desired cells were tripsinized (0.25% trypsin-EDTA solution (2.5 g/L of trypsin, 0.38 g/L of EDTA) collected and resuspended to a final concentration of 12.500 cls/mL in 2% Matrigel. The cell suspension was added over the solidified Matrigel layer and incubated at 37° C. The medium was changed after 4 days and the cell culture was daily visualized under a microscope for phenotype monitoring. The cells were cultured for 10 days.

HS578T cells [3] = assay: MTT metabolization, inhibition of HS578T cell proliferation; conditions: Homo sapiens, Hs-578T, read-out: Percentage inhibition Formula (III) mean
Experimental: These triple negative breast cancer cell lines were obtained from the American Type Culture Collection Cell Biology Collection (ATCC) (Manassas, Va.). The medium was changed every 2 days.
as §1, with “HS578T, BT549, MDA-MB-231 and HCC3153 cells were plated at a density of 1×10^4 cells per well in 24-well plates and cultured overnight in DMEM supplemented with 10% FBS.” left out
Combination index values less than 1 indicate synergism, values equal to 1 indicate an additive effect, whereas values greater than 1 indicate antagonism. Combination index values from three independent experiments were generated.

[4] = test system: PI3K/mTOR/AKT and JAK/STAT pathway; assay: Western Blot of PI3K/mTOR/AKT and JAK/STAT pathway components; conditions: 500 nM, up to 24 h
Experimental: (§2) Western-blot and phospho-array kits were used for evaluation of signaling intermediates.
HS578T and BT549 cell lines were grown in DMEM 10% of FBS and at 70% confluence were treated with Formula (III) at 500 nM for 6, 12 and 24 hours. Cells were washed with phosphate-buffered saline (PBS) (137 mM NaCl, 2.7 mM KCl, 8 mM Na2HPO4, 1.5 mM KH2PO4) and lysed in ice-cold lysis buffer (20 mM Tris-HCl [pH 7.0], 140 mM NaCl, 50 mM EDTA, 10% glycerol, 1% Nonidet P-40, 1 μM pepstatin, 1 μg/mL aprotinin, 1 μg/mL leupeptin, 1 mM phenylmethyl sulfonyl fluoride, 1 mM sodium orthovanadate). Lysates were centrifuged at 10000 g at 4° C. for 10 minutes. The protein level in the supernatants was quantified using BCA protein assay (Sigma Aldrich). A total of 50 μg of protein of each sample was used for analysis. Samples were then boiled in electrophoresis sample buffer and placed on 6%-15% sodium dodecyl sulfate-polyacrylamide gel electrophoresis (SDS-PAGE) gels, depending on the molecular weight of the proteins to be analyzed. Briefly, after electrophoresis, proteins in gels were transferred to polyvinylidene difluoride membranes (Millipore Corporation). Membranes were blocked in Tris-buffered saline with Tween (TBST) (100 mM Tris [pH 7.5], 150 mM NaCl, 0.05% Tween 20) containing 1% of bovine serum albumin for 1 h and then incubated overnight with the corresponding antibody. […]

HS578T cells [5] = assay: Western Blot of DNA damage and cell cycle markers; conditions: 500 nM, up to 24 h
Experimental: as §2
HS578T and BT549 cell lines were grown in DMEM 10% of FBS and at 70% confluence were treated with Formula (III) at 500 nM for 6, 12 and 24 hours. Cells were washed with phosphate-buffered saline (PBS) (137 mM NaCl, 2.7 mM KCl, 8 mM Na2HPO4, 1.5 mM KH2PO4) and lysed in ice-cold lysis buffer (20 mM Tris-HCl [pH 7.0], 140 mM NaCl, 50 mM EDTA, 10% glycerol, 1% Nonidet P-40, 1 μM pepstatin, 1 μg/mL aprotinin, 1 μg/mL leupeptin, 1 mM phenylmethyl sulfonyl fluoride, 1 mM sodium orthovanadate). Lysates were centrifuged at 10000 g at 4° C. for 10 minutes. The protein level in the supernatants was quantified using BCA protein assay (Sigma Aldrich). A total of 50 μg of protein of each sample was used for analysis. Samples were then boiled in electrophoresis sample buffer and placed on 6%-15% sodium dodecyl sulfate-polyacrylamide gel electrophoresis (SDS-PAGE) gels, depending on the molecular weight of the proteins to be analyzed. Briefly, after electrophoresis, proteins in gels were transferred to polyvinylidene difluoride membranes (Millipore Corporation). Membranes were blocked in Tris-buffered saline with Tween (TBST) (100 mM Tris [pH 7.5], 150 mM NaCl, 0.05% Tween 20) containing 1% of bovine serum albumin for 1 h and then incubated overnight with the corresponding antibody. Anti-pS473-AKT and anti-pT308-AKT were purchased from Santa Cruz; Anti-pS6, anti-pSTAT3 and anti-GADPH were purchased from Cell Signalling Technology; Anti-pH3, were purchased from Millipore-Cell Signaling; anti-p-H2AX were purchased from BD Biosciences. After washing with TBST, membranes were incubated with HRP-conjugated anti-mouse or anti-rabbit secondary antibodies (1:5000 dilution) for 1 hour and bands were visualized by using ECL Plus Western Blotting Detection System (GE Healthcare, Buckinghamshire, United Kingdom).

`C[C@]12O[C@H](C[C@@H](O)[C@H]1O)n1c3ccccc3c3c4c(c5c6ccccc6n2c5c31)C(=O)NC4=O` [Formula (III)] was tested, and the MTT metabolization ([1]; 0 to 2 μM after 72 h, 500 nM over 6 days) was “inhibited the MTT metabolization in a dose and time dependent manner”, the growth inhibition ([1]; doses in the submicromolar (nanomolar) range, all cell lines studied) was “more than 80%” and the IC50 ([1]; read-out: IC50 dose (MTT metabolization)) was 500 nM. For the same compound, the “diameter of spherical structures in matrigel” value [2] was “strongly decreased the diameter of these spheres”, the percent inhibition of cell proliferation at 0.1 µM (HS578T cells [3]; Formula (III) 100 nM alone (Table 14)) was 76.2% and the percent inhibition of cell proliferation at 0.1 µM (HS578T cells [3]; Formula (III) 100 nM alone (Table 15)) was 93.5%. The percent inhibition of cell proliferation at 0.12 µM (HS578T cells [3]; Formula (III) 120 nM alone (Table 12)) was 74.9%, the percent inhibition of cell proliferation at 0.12 µM (HS578T cells [3]; Formula (III) 120 nM alone) was 74.9% and the percent inhibition of cell proliferation at 0.18 µM (HS578T cells [3]; Formula (III) 180 nM alone (Table 12)) was 67.5%. It also gave a percent inhibition of cell proliferation at 0.18 µM (HS578T cells [3]; Formula (III) 180 nM alone) of 67.5%, a percent inhibition of cell proliferation at 0.2 µM (HS578T cells [3]; Formula (III) 200 nM alone (Table 13)) of 67.8% and a percent inhibition of cell proliferation at 0.2 µM (HS578T cells [3]; Formula (III) 200 nM alone (Table 14)) of 72.4%. For the same compound, the percent inhibition of cell proliferation at 0.2 µM (HS578T cells [3]; Formula (III) 200 nM alone (Table 15)) was 77.6%, the percent inhibition of cell proliferation at 0.24 µM (HS578T cells [3]; Formula (III) 240 nM alone (Table 12)) was 50.8% and the percent inhibition of cell proliferation at 0.24 µM (HS578T cells [3]; Formula (III) 240 nM alone) was 50.8%. The percent inhibition of cell proliferation at 0.26 µM (HS578T cells [3]; Formula (III) 260 nM alone (Table 13)) was 59.9%, the percent inhibition of cell proliferation at 0.3 µM (HS578T cells [3]; Formula (III) 300 nM alone (Table 12)) was 46.8% and the percent inhibition of cell proliferation at 0.3 µM (HS578T cells [3]; Formula (III) 300 nM alone (Table 13)) was 52.2%. For the same compound, the percent inhibition of cell proliferation at 0.3 µM (HS578T cells [3]; Formula (III) 300 nM alone (Table 14)) was 66.3%, the percent inhibition of cell proliferation at 0.3 µM (HS578T cells [3]; Formula (III) 300 nM alone (Table 15)) was 72.3% and the percent inhibition of cell proliferation at 0.3 µM (HS578T cells [3]; Formula (III) 300 nM alone) was 46.8%. It also gave a percent inhibition of cell proliferation at 0.38 µM (HS578T cells [3]; Formula (III) 380 nM alone (Table 13)) of 48.9%, a percent inhibition of cell proliferation at 0.4 µM (HS578T cells [3]; Formula (III) 400 nM alone (Table 14)) of 57.4% and a percent inhibition of cell proliferation at 0.4 µM (HS578T cells [3]; Formula (III) 400 nM alone (Table 15)) of 66.6%. The “phosphorylation of AKT, p70 S6 and STAT3” value [4] was “inhibits components of the PI3K/mTOR/AKT and JAK/STAT pathway”, the “Cyclin B and p-Cdc2 levels” value (HS578T cells [5]) was “increase” and the “cyclin D and Cyclin A levels” value (HS578T cells [5]) was “down-regulated”. The “phosphorylated levels of γH2AX” value (HS578T cells [5]) was “increase in the phosphorylated levels of γH2AX in a time dependent manner” and the “phosphorylation of p53 and chk2” value (HS578T cells [5]) was “induced the phosphorylation of p53 and chk2”.
